Measurements: article PMC6629894, “Ruthenium Complexes Containing Heterocyclic Thioamidates Trigger Caspase-Mediated Apoptosis Through MAPK Signaling in Human Hepatocellular Carcinoma Cells” (Frontiers in Oncology, 2019)
“Also recorded” adds a separate entry of the source. Read-outs that look alike come from different tables or passages of the source.

How the values were obtained:
[1] = tested on: WT SV40 MEF (wild-type immortalized mouse embryonic fibroblast); assay: Alamar blue cytotoxicity assay, 72 h; assay type: cell-based; conditions: read-out: IC50 and 95% CI
[2] = tested on: BAD KO SV40 MEF (BAD gene knockout immortalized mouse embryonic fibroblasts); assay: Alamar blue cytotoxicity assay, 72 h; assay type: cell-based; conditions: read-out: IC50 and 95% CI
[3] = tested on: multicellular spheroids formed from HepG2 cells; assay: 3D multicellular spheroid culture, Alamar blue, 72 h; assay type: cell-based, human; conditions: read-out: IC50 and 95% CI, 3D HepG2 spheroids
Procedure: HepG2 cells were cultivated as 3D multicellular spheroids in a 96-well plate with a cell-repellent surface. Briefly, 100 μL of a suspension of cells (5 × 10^5 cells/mL) was seeded into a 96-well plate with a cell-repellent surface (Greiner Bio-One, Kremsmünster, Austria) and cultured in RPMI 1640 medium with 10% fetal bovine serum, 2 mM glutamine plus 3% Matrigel (BD Biosciences, San Jose, CA, EUA) and 50 μg/mL gentamycin at 37°C with 5% CO2. Spheroids with stable structures formed after 3 days. Then, the complexes were dissolved in 0.5% DMSO at eight different concentrations from 0.19 to 25 μg/mL, were added to each well and incubated for 72 h. […] At the end of the experiment, morphological changes were examined by light microscopy (Olympus BX41, Tokyo, Japan) using Image-Pro software (Media Cybernetics, Inc. Silver Spring, USA), and cytotoxicity was quantified with the Alamar blue method as described above.

HepG2 cells = assay: Trypan blue exclusion assay; assay type: cell-based, human
Procedure: For all subsequent in vitro experiments, 2 mL of a suspension of HepG2 cells were seeded (7 × 10^4 cells/mL) and incubated in a 24-well plate overnight to allow the cells to adhere to the plate surface.
In the trypan blue exclusion assay, the number of viable cells and non-viable cells (stained with trypan blue) were counted. Briefly, 90 μL was removed from the cell suspension, and 10 μL of trypan blue (0.4%) was added. Cell counting was performed using a light microscope with a hemocytometer filled with an aliquot of the homogenized cell suspension.

B16-F10 (mouse melanoma) = assay: Alamar blue cytotoxicity assay, 72 h; assay type: cell-based
Text: (§1) The cell lines HepG2 (human hepatocellular carcinoma), HL-60 (human promyelocytic leukemia), K-562 (human chronic myelogenous leukemia), B16-F10 (mouse melanoma), MCF-7 (human breast carcinoma), HCT116 (human colon carcinoma), HSC-3 (human oral squamous cell carcinoma), SCC-4 (human oral squamous cell carcinoma), MRC-5 (human lung fibroblast), WT SV40 MEF (wild-type immortalized mouse embryonic fibroblast), and BAD KO SV40 MEF (BAD gene knockout immortalized mouse embryonic fibroblasts) were obtained from the American Type Culture Collection (ATCC, Manassas, VA, USA). Cells were cultured in RPMI 1640 medium (Gibco-BRL, Gaithersburg, MD, USA) with 10% fetal bovine serum (Life, Carlsbad, CA, USA), 2 mM L-glutamine (Vetec Química Fina, Duque de Caxias, RJ, Brazil) and 50 μg/mL gentamycin (Life). For all experiments, adherent cells were collected by treatment with 0.25% trypsin-EDTA solution (Gibco-BRL). All cell lines were cultured in flasks at 37°C in 5% CO2 and were subcultured every 3–4 days to maintain exponential growth. All cell lines were tested for mycoplasma using a mycoplasma staining kit (Sigma-Aldrich Co.) to validate that the cells that were used were free from contamination.
(§2) Cytotoxicity was measured colorimetrically using an Alamar blue method that was performed as previously described ([20], [21]). Cells were seeded in 96-well plates for all experiments (7 × 10^4 cells/mL for adherent cells or 3 × 10^5 cells/mL for suspension cells in 100 μL of medium) and incubated overnight at 37°C with 5% CO2 to allow for adherence. The complexes were dissolved in 0.5% dimethyl sulfoxide (DMSO, Vetec Química Fina) at eight different concentrations from 0.19 to 25 μg/mL and were added to each well and incubated for 72 h. The negative control was treated with the vehicle (0.5% DMSO) that was used to solubilize and dilute the complexes. […] Four (for cell lines) or 24 h (for PBMCs) before the end of incubation, 20 μL of a stock solution (0.312 mg/mL) of resazurin (Sigma-Aldrich Co.) was added to each well. Absorbance was measured at 570 and 600 nm using a SpectraMax 190 Microplate Reader (Molecular Devices, Sunnyvale, CA, USA).

[4] = tested on: K-562 (human chronic myelogenous leukemia); assay: Alamar blue cytotoxicity assay, 72 h; assay type: cell-based
Text: as §1, §2

[5] = tested on: HepG2 (human hepatocellular carcinoma); assay: Alamar blue cytotoxicity assay, 72 h; assay type: cell-based
Text: as §1, §2

[6] = tested on: HepG2 cells engrafted in C.B-17 SCID mice; assay: Human hepatocellular carcinoma xenograft model; assay type: in vivo; conditions: for mean tumor mass: 21 days (negative control 0.6 ± 0.1 g)
Procedure: A total of 64 C.B-17 severe-combined immunodeficiency (SCID) mice (females, 25–30 g) were obtained and maintained at the animal facilities from Gonçalo Moniz Institute-FIOCRUZ (Salvador, Bahia, Brazil). Animals were housed in cages with free access to food and water. All animals were kept under a 12:12-h light-dark cycle (lights on at 6:00 a.m.). The animals were treated according to the ethical principles for animal experimentation of SBCAL (Brazilian Association of Laboratory Animal Science), Brazil. The Animal Ethics Committee of Gonçalo Moniz Institute–FIOCRUZ (Salvador, Bahia, Brazil) approved the experimental protocol (number 06/2015). Animal welfare was monitored throughout the study, and the pain and suffering were minimized.

[7] = for Differential leukocytes: Eosinophils / Differential leukocytes: Lymphocytes / Differential leukocytes: Monocytes / Differential leukocytes: Neutrophils / Erythrocytes / Total leukocytes: peripheral blood
Procedure: A human hepatocellular carcinoma xenograft model was generated by subcutaneously implanting HepG2 cells (1 × 10^7 cells per 500 μL) into the left front armpit of C.B-17 SCID mice. […] The treatments were initiated one day after the cancer cell injection. The animals were treated intraperitoneally (200 μL per animal) once a day for 21 consecutive days. On the 22nd day, the animals were anesthetized, and peripheral blood samples were collected from the brachial artery. Animals were euthanized by an anesthetic overdose, and tumors were excised and weighed.
To evaluate the toxicological aspects, mice were weighed at the beginning and at the end of the experiment. […] Hematological analysis was performed using an Advia 60 hematology system (Bayer, Leverkusen, Germany).

[8] = 0.5 and 1 mg/kg/day i.p., 21 days

F[P-](F)(F)(F)(F)F.[Ru+2].[S-]C1=NCCS1.c1ccc(-c2ccccn2)nc1.c1ccc(P(CCCCP(c2ccccc2)c2ccccc2)c2ccccc2)cc1 [Complex 2, [Ru(tzdt)(bipy)(dppb)]PF6]
IC50 [1]: 2000 nM | IC50 [2]: 2900 nM | IC50 [3]: 7300 nM | reduction of the number of viable cells vs negative control (HepG2 cells; 2 μM, 24 h): 42.1% | reduction of the number of viable cells vs negative control (HepG2 cells; 2 μM, 48 h): 67.3% | reduction of the number of viable cells vs negative control (HepG2 cells; 4 μM, 24 h): 58.6% | reduction of the number of viable cells vs negative control (HepG2 cells; 4 μM, 48 h): 93.1% | Selectivity index (SI = IC50 [noncancerous cells]/IC50 [cancer cells]) (B16-F10 (mouse melanoma); MRC-5 vs B16-F10): 1.2 | Selectivity index (SI = IC50 [noncancerous cells]/IC50 [cancer cells]) (B16-F10 (mouse melanoma); PBMCs vs B16-F10): 2.0 | Selectivity index (SI = IC50 [noncancerous cells]/IC50 [cancer cells]) ([4]; MRC-5 vs K-562): 1.8 | Selectivity index (SI = IC50 [noncancerous cells]/IC50 [cancer cells]) ([4]; PBMCs vs K-562): 2.9 | IC50 ([4]; read-out: IC50 and 95% CI, K-562, 72 h): 900 nM | Selectivity index (SI = IC50 [noncancerous cells]/IC50 [cancer cells]) ([5]; MRC-5 vs HepG2): 0.8 | Selectivity index (SI = IC50 [noncancerous cells]/IC50 [cancer cells]) ([5]; PBMCs vs HepG2): 1.4 | mean tumor mass ([6]; 0.5 mg/kg/day i.p.): 0.3 ± 0.1 g | fibrosis in tumor histology ([6]; 1 mg/kg/day): most evident fibrosis | mean tumor mass ([6]; 1 mg/kg/day i.p.): 0.2 ± 0.1 g | tumor mass inhibition rates [6, 8]: 46.9–67.7% | Initial body weight ([7]; 0.5 mg/kg/day): 20.4 ± 0.4 g | Final body weight ([7]; 0.5 mg/kg/day i.p., 21 days): 20.8 ± 0.4 g | Heart relative weight ([7]; 0.5 mg/kg/day i.p., 21 days): 0.6 ± 0.1 g/100 g body weight | Kidney relative weight ([7]; 0.5 mg/kg/day i.p., 21 days): 1.5 ± 0.1 g/100 g body weight | Liver relative weight ([7]; 0.5 mg/kg/day i.p., 21 days): 4.7 ± 0.2 g/100 g body weight | Lung relative weight ([7]; 0.5 mg/kg/day i.p., 21 days): 0.8 ± 0.1 g/100 g body weight | Survival ([7]; 0.5 mg/kg/day i.p., 21 days): 10/10 | Initial body weight ([7]; 1 mg/kg/day): 19.9 ± 0.5 g | Final body weight ([7]; 1 mg/kg/day i.p., 21 days): 19.4 ± 0.5 g | Heart relative weight ([7]; 1 mg/kg/day i.p., 21 days): 0.6 ± 0.1 g/100 g body weight | Kidney relative weight ([7]; 1 mg/kg/day i.p., 21 days): 1.5 ± 0.1 g/100 g body weight | Liver relative weight ([7]; 1 mg/kg/day i.p., 21 days): 4.6 ± 0.1 g/100 g body weight | Lung relative weight ([7]; 1 mg/kg/day i.p., 21 days): 0.8 ± 0.1 g/100 g body weight | Survival ([7]; 1 mg/kg/day i.p., 21 days): 10/10 | hepatotoxicity: focal areas of coagulation necrosis in the liver (histology) [7, 8]: more evident; also recorded: evidence of hepatotoxicity | Differential leukocytes: Eosinophils ([7]; 0.5 mg/kg/day, 21 days): 1.3% | Differential leukocytes: Lymphocytes ([7]; 0.5 mg/kg/day, 21 days): 39.9% | Differential leukocytes: Monocytes ([7]; 0.5 mg/kg/day, 21 days): 39.1% | Differential leukocytes: Neutrophils ([7]; 0.5 mg/kg/day, 21 days): 21.1% | Erythrocytes ([7]; 0.5 mg/kg/day, 21 days): 8.5 ± 1.0 10^6cells/μL | Total leukocytes ([7]; 0.5 mg/kg/day, 21 days): 2.5 ± 0.4 10^3cells/μL | Differential leukocytes: Eosinophils ([7]; 1 mg/kg/day, 21 days): 1.1% | Differential leukocytes: Lymphocytes ([7]; 1 mg/kg/day, 21 days): 32.2% | Differential leukocytes: Monocytes ([7]; 1 mg/kg/day, 21 days): 32.5% | Differential leukocytes: Neutrophils ([7]; 1 mg/kg/day, 21 days): 34.4% | Erythrocytes ([7]; 1 mg/kg/day, 21 days): 7.8 ± 0.8 10^6cells/μL | Total leukocytes ([7]; 1 mg/kg/day, 21 days): 2.7 ± 0.4 10^3cells/μL
